Data: patent US9573907B2, “2, 4-pyrimidine derivatives and use thereof” (SNU R&DB FOUNDATION, priority 2009, dated 2017)

System: gp96tm transgenic mice
Protocol: Female gp96tm transgenic mice (Proc Natl Acad Sci USA. 2003 December 23; 100(26): 15824-15829) were bred and maintained at the animal center for pharmaceutical research, Seoul National University. We used age-matched, 12-26 weeks old mice in each experimental group. To suppress cell surface gp96 we used GPM1 compound. Dexamethasone and GPM1 were dissolved in 5% DMSO in phosphate-buffered saline (PBS) and control vehicle was 5% DMSO in PBS. Compounds were administered i.p. every 24 h for 2 months (30 mg/kg/day). Three groups of each 9 mice were examined. All procedures were conducted in accordance with the Guide for the Care and Use of Laboratory Animals, published by the Korean National Institute of Health.
Spleen and lymph node cell suspensions were prepared by grindling tissue through sterile mesh and erythrocytes were lysed with RBC lysis buffer (eBioscience, CA). For surface staining, antibodies were fluoresceinisothiocyanate (FITC)-, phycoerythrin (PE)-, PerCP-, or APC-conjugated. Antibodies used were CD4 (RM4-5, H129.12), CD8 (53-6,7), B220 (RA3-6B2), CD11b (M1/70), CD11c (HL3), CD44 (IM7), CD62L (MEL-14), CD69 (H1.2F3), CD25 (PC61.5), IgM (11/41), IgD (11-26C.2a) (BD Pharmingen, CA), MHC class II (M5/114.15.2), Foxp3 (FJK-16s) (eBioscience, CA), and gp96 (Santacruz, Calif.). After staining, cells were washed and analyzed on a FACS can flow cytometer using CellQuest software (BD Bioscience, Mountain View, Calif.).
Kidney tissue sections of gp96tm transgenic mice were fixed in 10% formaldehyde in PBS and dehydrated using an alcohol gradient. After paraffin infiltration, the tissues were sectioned using a microtome, stained with hematoxylin and eosin (H&E) and analyzed by light microscopy. For immunofluorescent staining, kidneys were sectioned with a cryostat. These cryosections were blocked with normal goat serum, stained with FITC-conjugated goat anti-mouse Ig (BD pharmingen, CA), and then observed by fluorescent microscopy.
The present inventors compared the effect of GPM1 with phosphate-buffered saline containing 5% DMSO and dexamethasone (Dex), an immunosuppressant of glucocorticoid family as negative and positive control, respectively. Each group consisted of age-matched nine female mice. […] After 2 month, the present inventors isolated MHC class II^+ splenocytes and lymph nodes from vehicle-, Dex-, and GPM1-treated mice and determined the portion of gp96^+ cells by flow cytometry.

[1] = spleen and lymph nodes, 30 mg/kg

In the case of `COC(=O)[C@@H](Oc1nc(OC)cc(OC)n1)C(C)C` [GPM1, (S)-methyl 2-(4,6-dimethoxypyrimidin-2-yloxy)-3-methylbutanoate], the “glomerulonephritis phenotypes and glomerular immunoglobulin deposition” value (kidney sections) is reported as “lessened”, the “total cell count (spleen)” value (mouse, in vivo, 30 mg/kg/day) is reported as 4.56 ± 1.44 × 10^6 and the “adverse effects / death during administration” value (mouse, in vivo, ip, 30 mg/kg) is reported as “did not give apparent adverse effects”. The DNA-specific autoantibody levels (serum) was “reduced”, the “Nuclear antigen-specific autoantibody levels” value (serum) was “reduced” and the “total serum levels of IgG1, IgG2b, IgG3, IgM, and IgA” value (serum, ELISA) was “reduced”. For the same molecule, the “CD4+CD25+Foxp3+ regulatory T cell population” value (spleen and lymph nodes) was “increase”, the “population of CD4+ memory cells and activated CD4+ T cells” value (spleen and lymph nodes) was “reduction” and the “B220+ population” value [1] was “reduced”. For the same molecule, the “MHC class II+ population” value [1] was “reduced”, the “mature B cell population (B220+IgM+IgD+)” value (splenocytes) was “decreased” and the “ICOSL levels in CD11b+CD11c+ myeloid DC” value (splenocytes, 30 mg/kg) was “significantly reduced”. The “ICOSL levels in CD11b+CD11c− macrophages” value (splenocytes, 30 mg/kg) was “suppressed”, the “ICOSL levels in CD11b−CD11c+ lymphoid DCs” value (splenocytes, 30 mg/kg) was “little difference” and the “percentages of gp96+ MHC class II+ cells” value (splenocytes, after 2 month, 30 mg/kg) was roughly 41%. The Proteinuria (urine) was “reduced”.
